Tests used:
[1] = Urine catching pad urine addition test, urine odor intensity; set-up: species or system human; settings: six-level score 0 to 5, average of five panelists; inhibitor 1 wt. % of water-absorbent polymer; 30 g human urine, 30° C.
Protocol: Sensory evaluation of odor was performed by six panelists, the evaluation was based on a six-level odor intensity indication method in which the odor intensity was indicated with an evaluation score of 0 to 5. In the evaluation score, “0” indicates no odor, “1” indicates odor which can be slightly perceived (detection threshold), “2” indicates odor which can be perceived to be urine odor but is weak (perception threshold), “3” indicates odor which can be easily perceived to be urine odor, “4” indicates strong urine odor, and “5” indicates extreme urine odor. The odor intensity was determined at an interval of 0.5.
Specifically, the urine catching pad was prepared by replacing only a water-absorbent polymer in the commercially available urine catching pad “Relief urine catching pad safe absorption (Anshin-Kyusyu)” (manufactured by Kao Corporation) with a water-absorbent polymer wherein the β-glucuronidase inhibitor of the present invention was added. The added amount of the inhibitor to the water-absorbent polymer was 1 wt. % with respect to the water-absorbent polymer, and was equivalent to 1.5 g/m^2 with respect to the urine catching pad.
A urine addition test was performed by using test pieces having dimensions of 19 cm by 7 cm being cut out from the urine catching pad, and using a test piece containing no β-glucuronidase inhibitor as a blank. The test was performed as follows: 30 g of human urine (a mixture of urine from five humans) were added to these test pieces cut out from the urine catching pad, and the urine odor intensity after 1 hour, after 24 hours, and after 48 hours under preservation at 30° C. was evaluated by five panelists based on the six-level odor intensity indication method as described in the item (2) of Reference Example 2.

[2] = target: T1, β-glucuronidase Type VII-A derived from Escherichia coli (Escherichia coli, UniProt P05804); test: Inhibition of β-glucuronidase activity (PNPG substrate, absorbance at 400 nm); type: biochemical; settings: 1.6 units/mL enzyme, 37° C., 2 hours, pH 6.8; for Inhibition rate (%) Concentration 0.001%: 0.001 wt % in reaction solution; for inhibition at 0.01 wt %: read-out: Inhibition rate (%) Concentration 0.01%; for inhibition at 0.1 wt %: read-out: Inhibition rate (%) Concentration 0.1%
T1 construct: purchased Sigma-Aldrich Corporation
Protocol: 100 μL of a 2 mM PNPG aqueous solution, 40 μL of a 0.5 M phosphate buffer (pH 6.8), 38 μL of ion exchanged water and 2 μL of a 10 or 1 wt % dipropylene glycol (DPG) solution of various compounds or plant extracts were mixed in a bottle γ-ray sterilized in advance, and subsequently 20 μL of a β-glucuronidase aqueous solution adjusted to 16 units/mL was added, in order to allow the enzyme to react in a thermostat bath at 37° C. for 2 hours. Further, in the case of some of compounds, in addition to the above steps, the same experiment was performed using a 0.1 wt % DPG solution as well. As a result, the concentrations of the test compounds and plant extracts in the reaction solution were adjusted to 0.1, 0.01 and 0.001 wt %, respectively. Further, a product prepared by adding DPG in place of the above-mentioned compounds and plant extracts was used as a control, and a product prepared by adding ion exchanged water in place of an enzyme solution was used as a blank for each sample and control, and the respective products were allowed to react for 2 hours in the same manner. It should be noted that the plant extract sample was used as a solvent extract.
The above-mentioned reaction solution was diluted with a 0.2 M glycine buffer (pH 10.4) and measured for its absorbance at a wavelength of 400 nm. The relative activity inhibition rate of a β-glucuronidase was determined by using the obtained measurement value in accordance with the following equation. Absorbance change of control=Absorbance of control−Absorbance of blank for each control Absorbance change of sample=Absorbance of sample−Absorbance of blank for each sample Activity inhibition rate (%)=[(Absorbance change of control−Absorbance change of sample)/Absorbance change of control]×100

T1 sequence (P05804 whole entry): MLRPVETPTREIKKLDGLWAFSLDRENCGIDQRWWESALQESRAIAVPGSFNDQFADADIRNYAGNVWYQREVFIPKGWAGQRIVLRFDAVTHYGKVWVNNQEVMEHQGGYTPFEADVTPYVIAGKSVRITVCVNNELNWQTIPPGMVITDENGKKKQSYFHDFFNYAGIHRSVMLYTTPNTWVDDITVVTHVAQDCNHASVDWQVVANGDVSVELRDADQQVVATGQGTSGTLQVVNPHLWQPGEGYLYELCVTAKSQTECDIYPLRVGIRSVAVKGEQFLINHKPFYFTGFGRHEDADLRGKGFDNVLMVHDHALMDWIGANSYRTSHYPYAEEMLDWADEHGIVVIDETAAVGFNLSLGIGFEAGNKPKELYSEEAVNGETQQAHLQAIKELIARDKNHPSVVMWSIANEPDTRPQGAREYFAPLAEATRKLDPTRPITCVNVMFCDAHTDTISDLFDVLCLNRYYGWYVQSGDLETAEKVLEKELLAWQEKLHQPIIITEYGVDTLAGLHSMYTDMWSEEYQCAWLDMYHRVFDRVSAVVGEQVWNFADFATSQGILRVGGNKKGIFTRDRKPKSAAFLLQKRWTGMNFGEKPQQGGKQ

Row | Structure (SMILES) | inhibition at 0.01 wt % ([2]; 0.01 wt % in reaction solution) | inhibition at 0.1 wt % ([2]; 0.1 wt % in reaction solution) | further results
1 | O=C(O)[C@@H](O)[C@H]1OC(=O)[C@H](O)[C@H]1O [D-Glucaro-1,4-lactone, D-glucaro-1,4-lactone, reference compound] | 80.4% | 98% | Urine odor intensity After 1 hour [1]: 1.6; Urine odor intensity After 24 hours [1]: 1.9; Urine odor intensity After 48 hours [1]: 3.3; Inhibition rate (%) Concentration 0.001% [2]: 31.1%
2 | O=C1CCCCCCCCOCCCCCCO1 [10-Oxa-16-hexadecanolide, 10-oxa-16-hexadecanolide] | 95.8% | 99.4% | Inhibition rate (%) Concentration 0.001% [2]: 63.0%
3 | O=C1CCCCCCCCCCCCCC1 [Cyclopentadecanone, cyclopentadecanone] | 35.6% | 73.3% | –
4 | CC(C)=CCCC(C)=CC=O [Citral, citral] | 29.1% | 84.1% | –
5 | CC(C=O)Cc1ccc2c(c1)OCO2 (stereo not shown) [Helional, 2-methyl-3-(3,4-methylenedioxyphenyl)-propanal] | 32.4% | 76.4% | –
6 | CC(=O)OCCC(C)CCC=C(C)C (stereo not shown) [Citronellyl acetate, citronellyl acetate] | 44.8% | 84.2% | –
7 | CC(C=O)Cc1ccc(C(C)(C)C)cc1 (stereo not shown) [Lilial, 2-methyl-3-(4-tert-butylphenyl)-propanal] | 60.9% | 72.3% | –
8 | CCC=CCCC=CC=O [2,6-Nonadienal, 2,6-nonadienal] | 60.9% | 95.2% | –
9 | CC(=O)OCC=Cc1ccccc1 [Cinnamyl acetate, cinnamyl acetate] | 51.3% | 96.2% | –
10 | CC(C)=CCCC(C)CC#N (stereo not shown) [Citronellyl nitrile, citronellyl nitrile] | – | – | Inhibition rate (%) Concentration 0.01% ([2]; 0.01 wt % in reaction solution): 41.8%; Inhibition rate (%) Concentration 0.1% ([2]; 0.1 wt % in reaction solution): 92.4%
11 | O=C1CCCC=CCCCCCCCCCC1 [5-Cyclohexadecen-1-one, 5-cyclohexadecen-1-one] | 93.9% | 98.4% | Inhibition rate (%) Concentration 0.001% [2]: 65.8%
12 | CCCCCCC#CC(=O)OC [Methyl-2-nonynoate, methyl-2-nonynoate] | 95.3% | 98.2% | –
13 | CC1CCCCCCCCCCCCC(=O)C1 (stereo not shown) [3-Methylcyclopentadecanone, 3-methylcyclopentadecanone] | 57.3% | 86.4% | –
14 | CC(C)=CCC/C(C)=C/CO [Geraniol, geraniol] | 56.8% | 79.8% | –
